Reference: patent publication US6552080B1, “Fungicidal compounds having a fluorovinyl-or fluoropropenyl-oxyphenyloxime moiety and process for the preparation thereof” (Korea Research Institute of Chemical Technology, priority 1999, dated 2003)
Read-outs that look alike come from different tables or passages of the source.

Legend:
Phytophthora infestans = format: in vivo; conditions: for TLB (Fungicidal Activities, C.V.): Tomato Late Blight
Puccinia recondita = assay: Fungicidal activity against Wheat Leaf Rust (WLR) disease; format: in vivo; conditions: for WLR (Fungicidal Activities, C.V.): Wheat Leaf Rust
Erysiphae graminis = assay: Fungicidal activity against Barley Powdery Mildew (BPM) disease; format: in vivo; conditions: for BPM (Fungicidal Activities, C.V.): Barley Powdery Mildew
Rhizoctonia solani AG-1 = assay: Fungicidal activity against Rice Sheath Blight (RSB) disease; conditions: for RSB (Fungicidal Activities, C.V.): Rice Sheath Blight
Botrytis cinerae = assay: Fungicidal activity against Cucumber Gray Mold Rot (CGM) disease; format: in vivo; conditions: for CGM (Fungicidal Activities, C.V.): Cucumber Gray Mold Rot, concentration 50 ppm; for Fungicidal Activities CGM (C.V.): 50 ppm
Experimental: Botrytis cinerae, which was isolated from cucumber infected thereby, was inoculated on a PDA agar medium and cultured under a 12L/12D cycle at 25° C. for 15 days to form spore. The spores were scraped, filtered through a gauze and then suspended in potato dextrose liquid medium at a concentration of 1×10^6 spore/ml. The spore suspension was sprayed on a cucumber plant having one leaf. The cucumber plant was held in a humidified room at 20° C. for 3 days. L.A. on a leaf was measured to calculate an C.V.

[1] = test system: Pyricularia oryzae Carvara KA301; format: in vivo; conditions: for RCV (Fungicidal Activities, C.V.): Rice Blast

| SMILES | TLB (Fungicidal Activities, C.V.) (Phytophthora infestans; concentration 50 ppm) [%] | WLR (Fungicidal Activities, C.V.) (Puccinia recondita; concentration 10 ppm) [%] | WLR (Fungicidal Activities, C.V.) (Puccinia recondita; concentration 50 ppm) [%] | BPM (Fungicidal Activities, C.V.) (Erysiphae graminis; concentration 10 ppm) [%] | BPM (Fungicidal Activities, C.V.) (Erysiphae graminis; concentration 50 ppm) [%] | RSB (Fungicidal Activities, C.V.) (Rhizoctonia solani AG-1; concentration 50 ppm) [%] | CGM (Fungicidal Activities, C.V.) (Botrytis cinerae) [%] | RCV (Fungicidal Activities, C.V.) ([1]; concentration 50 ppm) [%] | TLB (Fungicidal Activities, C.V.) (Phytophthora infestans; concentration 2 ppm) [%] | WLR (Fungicidal Activities, C.V.) (Puccinia recondita; concentration 2 ppm) [%] | BPM (Fungicidal Activities, C.V.) (Erysiphae graminis; concentration 2 ppm) [%] | RSB (Fungicidal Activities, C.V.) (Rhizoctonia solani AG-1; concentration 2 ppm) [%] | RCV (Fungicidal Activities, C.V.) ([1]; concentration 2 ppm) [%] | further results |
| --- | --- | --- | --- | --- | --- | --- | --- | --- | --- | --- | --- | --- | --- | --- |
| COC=C(C(=O)OC)c1ccccc1CON=C(c1cccc(OC(F)=Cc2ccc(OC)cc2)c1)C(F)(F)F [Compound 89] | 12 | 70 | 96 | 99 | 100 | 50 | 0 | 80 |  |  |  |  |  |  |
| CON=C(C(=O)OC)c1ccccc1CON=C(C)c1cccc(OC(F)=Cc2ccc(OC)cc2)c1 [Compound 72] | 66 |  | 100 |  | 100 | 65 | 0 | 98 | 0 | 98 | 100 | 25 | 100 |  |
| CON=C(C(=O)OC)c1ccccc1CON=C(C)c1cccc(OC(F)=Cc2ccc(Cl)cc2)c1 [Compound 76] | 0 |  | 100 |  | 100 | 100 | 62 | 100 | 0 | 100 | 100 | 35 | 100 |  |
| CCc1ccc(C=C(F)Oc2cccc(C=NOCc3ccccc3C(=NOC)C(=O)NC)c2)cc1 [Compound 33] | 0 |  | 96 |  | 100 | 17 | 0 | 96 |  | 10 | 0 |  | 97 |  |
| CNC(=O)C(=NOC)c1ccccc1CON=C(C)c1cccc(OC(F)=C(c2cccc(OC)c2)C(F)(F)F)c1 [Compound 197] |  |  |  |  |  |  |  |  |  |  |  |  |  | Fungicidal Activities TLB (C.V.) (Phytophthora infestans; 2 ppm): 0%; Fungicidal Activities TLB (C.V.) (Phytophthora infestans; 50 ppm): 50%; Fungicidal Activities WLR (C.V.) (Puccinia recondita; 2 ppm): 98%; Fungicidal Activities WLR (C.V.) (Puccinia recondita; 50 ppm): 100%; Fungicidal Activities BPM (C.V.) (Erysiphae graminis; 2 ppm): 100%; Fungicidal Activities BPM (C.V.) (Erysiphae graminis; 50 ppm): 100%; Fungicidal Activities RSB (C.V.) (Rhizoctonia solani AG-1; 2 ppm): 35%; Fungicidal Activities RSB (C.V.) (Rhizoctonia solani AG-1; 50 ppm): 80%; Fungicidal Activities CGM (C.V.) (Botrytis cinerae): 85%; Fungicidal Activities RCV (C.V.) ([1]; 2 ppm): 100%; Fungicidal Activities RCV (C.V.) ([1]; 50 ppm): 100% |
| CON=C(C(=O)OC)c1ccccc1CON=C(C)c1cccc(OC(F)=C(c2ccccc2)C(F)(F)F)c1 [Compound 173] |  |  |  |  |  |  |  |  |  |  |  |  |  | Fungicidal Activities TLB (C.V.) (Phytophthora infestans; 50 ppm): 20%; Fungicidal Activities WLR (C.V.) (Puccinia recondita; 2 ppm): 99%; Fungicidal Activities WLR (C.V.) (Puccinia recondita; 50 ppm): 100%; Fungicidal Activities BPM (C.V.) (Erysiphae graminis; 2 ppm): 99%; Fungicidal Activities BPM (C.V.) (Erysiphae graminis; 50 ppm): 100%; Fungicidal Activities RSB (C.V.) (Rhizoctonia solani AG-1; 2 ppm): 30%; Fungicidal Activities RSB (C.V.) (Rhizoctonia solani AG-1; 50 ppm): 100%; Fungicidal Activities CGM (C.V.) (Botrytis cinerae): 25%; Fungicidal Activities RCV (C.V.) ([1]; 2 ppm): 93%; Fungicidal Activities RCV (C.V.) ([1]; 50 ppm): 97% |
| CON=C(C(=O)OC)c1ccccc1CON=Cc1cccc(OC(F)=Cc2ccc(OC)cc2)c1 [Compound 26] | 90 |  | 93 |  | 100 | 77 | 77 | 95 |  |  |  |  |  |  |
| COC=C(C(=O)OC)c1ccccc1CON=Cc1cccc(OC(F)=Cc2cccc(Cl)c2)c1 [Compound 13] | 46 | 100 | 100 | 100 | 100 | 70 | 36 | 93 |  | 99 | 99 |  | 41 | RCV (Fungicidal Activities, C.V.) ([1]; concentration 10 ppm): 86% |
| CNC(=O)C(=NOC)c1ccccc1CON=C(C)c1cccc(OC(F)=Cc2ccc(F)cc2)c1 [Compound 82] | 84 |  | 100 |  | 100 | 85 | 82 | 96 | 85 | 100 | 100 | 55 | 100 |  |
| CO/C=C(/C(=O)OC)c1ccccc1CON=C(C)c1cccc(OC(F)=Cc2ccccc2)c1 [Compound 40, Methyl (2E)-3-Methoxy-2-{2′-[[[3″-(1′″-fluoro-2′″-phenyl-1′″-ethenyloxy)phenyl]methylimino]oxy]methylphenyl}propenoate] | 97 | 100 | 100 | 100 | 100 | 95 | 75 | 100 | 12 | 99 | 100 | 70 | 99 | TLB (Fungicidal Activities, C.V.) (Phytophthora infestans; concentration 10 ppm): 68%; RSB (Fungicidal Activities, C.V.) (Rhizoctonia solani AG-1; concentration 10 ppm): 75%; RCV (Fungicidal Activities, C.V.) ([1]; concentration 10 ppm): 100% |
| COC=C(C(=O)OC)c1ccccc1CON=C(C)c1cccc(OC(F)=Cc2ccc(OC)cc2)c1 [Compound 48] | 95 | 100 | 100 | 100 | 100 | 75 | 64 | 100 |  | 99 | 100 |  | 41 | RCV (Fungicidal Activities, C.V.) ([1]; concentration 10 ppm): 96% |
| COC=C(C(=O)OC)c1ccccc1CON=Cc1cccc(OC(F)=C(c2ccc(C)cc2)C(F)(F)F)c1 [Compound 105] | 0 | 98 | 100 | 99 | 100 | 20 | 0 | 0 |  | 86 | 98 |  |  |  |
| COC=C(C(=O)OC)c1ccccc1CON=Cc1cccc(OC(F)=Cc2cccc(F)c2)c1 [Compound 11] | 85 | 100 | 100 | 99 | 100 | 40 | 17 | 100 |  | 97 | 98 |  | 33 | RCV (Fungicidal Activities, C.V.) ([1]; concentration 10 ppm): 86% |
| CNC(=O)C(=NOC)c1ccccc1CON=Cc1cccc(OC(F)=C(c2ccc(F)cc2)C(F)(F)F)c1 [Compound 145] | 0 |  | 100 |  | 100 | 64 | 0 | 100 |  | 83 | 33 |  | 83 |  |
| CCc1ccc(C=C(F)Oc2cccc(C(C)=NOCc3ccccc3C(=NOC)C(=O)OC)c2)cc1 [Compound 69] | 60 |  | 100 |  | 100 | 100 | 25 | 100 | 25 | 97 | 99 | 30 | 100 |  |
| CCOc1ccc(C=C(F)Oc2cccc(C(C)=NOCc3ccccc3C(=NOC)C(=O)NC)c2)cc1 [Compound 81] | 64 |  | 100 |  | 100 | 100 | 83 | 100 | 12 | 99 | 100 | 30 | 100 |  |
